Like-named read-outs stand apart in the source and are kept apart here.

One data set deals with HIV-1 protease (Human immunodeficiency virus type 1 group M subtype B, UniProt P04585). Description: Fluorogenic assay for screening inhibitors of HIV protease.
Data set [1] can be described thus: Cytotoxicity in MT4 cells. The class given is cell-based. The note with it: human, concentration at which 50% of the cells remain viable, read-out: LC50 (the source's name). The text has this: (§1) The IC50 is the concentration of compound that gives 50% inhibition of the cytopathic effect of HIV. The LC50 is the concentration of compound at which 50% of the cells remain viable.

The subject of the next data set is HIV-13B in MT4 cells. Description: Anti-HIV activity (inhibition of cytopathic effect of HIV) in MT4 cells. The note with it: Human immunodeficiency virus 1, concentration giving 50% inhibition of cytopathic effect of HIV. It is filed as cell-based.
Excerpt: as §1
Background: Damage to the host cells serves as the signal in cytopathic effect assays.

Setting [2] is: pH 4.5, read-out: Percent Inhibition.

Experimental for HIV-1 protease: The inhibitory potency of the compounds of the invention can be determined by the following method.
A compound of the invention is dissolved in DMSO and a small aliquot further diluted with DMSO to 100 times the final concentration desired for testing. The reaction is carried out in a 6×50 mm tube in a total volume of 300 microliters. The final concentrations of the components in the reaction buffer are: 125 mM sodium acetate, 1M sodium chloride, 5 mM dithiothreitol, 0.5 mg/ml bovine serum albumin, 1.3 μM fluorogenic substrate, 2% (v/v) dimethylsulfoxide, pH 4.5. After addition of inhibitor, the reaction mixture is placed in the fluorometer cell holder and incubated at 30° C. for several minutes. The reaction is initiated by the addition of a small aliquot of cold HIV protease. The fluorescence intensity (excitation 340 nm, emmision 490 nM) is recorded as a function of time. The reaction rate is determined for the first six to eight minutes. The observed rate is directly proportional to the moles of substrate cleaved per unit time. The percent inhibition is 100×(1-(rate in presence of inhibitor)/(rate in absence of inhibitor)).

At HIV-1 protease, `CC(C)(C)OC(=O)NN(Cc1ccc(O)cc1)C[C@H](O)[C@H](Cc1ccccc1)NC(=O)OCc1ccccc1` [Example 52, 5S-(Benzyloxycarbonyl)amino-2-(t-butyloxycarbonyl)amino-4S-hydroxy-1-(4-hydroxyphenyl)-6-phenyl-2-azahexane] returned an IC50 of 0.0075 µM. Further, on HIV-1 protease (setting [2]), the inhibition at 0.0075 µM stood at 50%.

For `CC(C)[C@H](NC(=O)OCc1ccccn1)C(=O)N[C@@H](Cc1ccccc1)[C@@H](O)CN(Cc1ccccc1)NC(=O)OC(C)(C)C` [Example 2E, 5S-N-((2-Pyridinyl)methoxycarbonyl)valinylamino-2-t-butyloxycarbonylamino-4S-hydroxy-1,6-diphenyl-2-azahexane], the CC50 in data set [1] came to 56 µM. The IC50 was 0.0005 µM against HIV-1 protease and 0.78 to 1.23 µM in the data set on HIV-13B in MT4 cells. Besides, the inhibition at 0.0005 µM at HIV-1 protease (setting [2]) was determined as 50%.

In turn, `CC(C)(C)OC(=O)NN(Cc1ccc(OCCN2CCOCC2)cc1)C[C@H](O)[C@H](Cc1ccccc1)NC(=O)OCc1ccccc1` [Example 57C, 2-(t-Butyloxycarbonyl)amino-5S-(benzyloxycarbonyl)amino-4S-hydroxy-1-(4-((2-morpholinyl)ethoxy)phenyl)-6-phenyl-2-azahexane] returned an IC50 on HIV-1 protease of 0.0099 µM. Besides, the inhibition at 0.0099 µM at HIV-1 protease (setting [2]) is 50%.

Consider `CC(C)(C)OC(=O)NN(Cc1ccccc1)C[C@H](O)[C@H](Cc1ccccc1)NC(=O)OCc1cccnc1` [Example 4B, 5S-((3-Pyridinyl)methoxycarbonyl)amino-2-t-butyloxycarbonylamino-4S-hydroxy-1,6-diphenyl-2-azahexane], for which the IC50 on HIV-1 protease amounted to 0.0039 µM. Moreover, the inhibition at 0.0039 µM on HIV-1 protease (setting [2]) is 50%.

`CC(C)(C)OC(=O)NN(Cc1ccoc1)C[C@H](O)[C@H](Cc1ccccc1)NC(=O)OCc1cncs1` [Example 47] displayed an IC50 against HIV-1 protease of 0.0021 µM. For the same molecule, the inhibition at 0.0021 µM on HIV-1 protease (setting [2]) is 50%.

Regarding `CC(C)c1nc(CN(C)C(=O)N[C@H](C(=O)N[C@@H](Cc2ccccc2)[C@@H](O)CN(Cc2ccccc2)NC(=O)OC(C)(C)C)C(C)C)co1` [Example 9F, 5S-N-((N-Methyl-N-((2-isopropyl-4-oxazolyl)methyl)amino)carbonyl)-L-valinylamino-2-N-(t-butyloxycarbonyl)amino-4S-hydroxy-1,6-diphenyl-2-azahexane], in data set [1], the CC50 was determined as 19 µM. Moreover, the inhibition at 0.0005 µM at HIV-1 protease (setting [2]) was determined as 61%. The same molecule showed an IC50 in the data set on HIV-13B in MT4 cells of 0.46 to 1 µM.

`COc1ccc(CN(C[C@H](O)[C@H](Cc2ccccc2)NC(=O)[C@@H](NC(=O)OCc2ccccn2)C(C)C)NC(=O)OCc2cccnc2)cc1` [Example 16, 5S-N-((2-Pyridinyl)methoxycarbonyl)-L-valinylamino-2-N-((3-pyridinyl)methoxycarbonyl)amino-4S-hydroxy-1-p-methoxyphenyl-6-phenyl-2-azahexane]: in data set [1], the CC50 was found to be 57 µM. Besides, the IC50 was 0.0005 µM against HIV-1 protease and 0.2 to 0.27 µM in the data set on HIV-13B in MT4 cells. Also, the inhibition at 0.0005 µM on HIV-1 protease (setting [2]) came to 50%.

As for `CC(C)c1nc(COC(=O)N[C@H](C(=O)N[C@@H](Cc2ccccc2)[C@@H](O)CN(Cc2ccc(O)cc2)NC(=O)OC(C)(C)C)C(C)C)co1` [Example 53, 5S-(((2-Isopropyl-4-oxazolyl)methoxycarbonyl)-valinyl)amino-2-(t-butyloxycarbonyl)amino-4S-hydroxy-1-(4-hydroxyphenyl)-6-phenyl-2-azahexane], the inhibition at 0.0005 µM at HIV-1 protease (setting [2]) was 57%. Moreover, the IC50 in the data set with HIV-13B in MT4 cells turned out to be 0.055 µM.

For the molecule `COc1ccc(CN(C[C@H](O)[C@H](Cc2ccccc2)NC(=O)[C@@H](NC(=O)OCc2ccccn2)C(C)C)NC(=O)OC(C)(C)C)cc1` [Example 15, 5S-N-((2-Pyridinyl)methoxycarbonyl)-L-valinylamino-2-N-(t-butyloxycarbonyl)amino-4S-hydroxy-1-p-methoxyphenyl-6-phenyl-2-azahexane], the CC50 in data set [1] was over 100 µM. Also, the inhibition at 0.0005 µM at HIV-1 protease (setting [2]) stood at 44%. The IC50 in the data set on HIV-13B in MT4 cells fell in the range of 0.44 to 0.6 µM.

Take `COc1ccc(CN(C[C@H](O)[C@H](Cc2ccccc2)NC(=O)OCc2ccccc2)NC(=O)OC(C)(C)C)cc1` [Example 14B, 5S-N-(Benzyloxycarbonyl)amino-2-N-(t-butyloxycarbonyl)amino-4S-hydroxy-1-p-methoxyphenyl-6-phenyl-2-azahexane]: the IC50 on HIV-1 protease amounted to 0.01 µM. Besides, the inhibition at 0.01 µM at HIV-1 protease (setting [2]) is 50%.

`CC(C)c1nc(CN(C)C(=O)N[C@H](C(=O)NN(Cc2ccccc2)C[C@H](O)[C@H](Cc2ccccc2)NC(=O)OCc2cncs2)C(C)C)cs1` [Example 8, 5S-(((5-Thiazolyl)methoxy)carbonyl)amino-2-N-((N-methyl-N-((2-isopropyl-4-thiazolyl)methyl)amino)carbonyl)-L-valinylamino-4S-hydroxy-1,6-diphenyl-2-azahexane]: in data set [1], the CC50 amounted to 17 µM. Also, on HIV-1 protease (setting [2]), the inhibition at 0.0005 µM came to 77%. The same molecule gave an IC50 in the data set with HIV-13B in MT4 cells of 0.1 to 0.11 µM.

On to `CC(C)c1nc(CN(C)C(=O)N[C@H](C(=O)NN(Cc2ccccc2)C[C@H](O)[C@H](Cc2ccccc2)NC(=O)OCc2ccccc2)C(C)C)co1` [Example 11, 5S-(Benzyloxycarbonyl)amino-2-N-((N-methyl-N-((2-isopropyl-4-oxazolyl)methyl)amino)carbonyl)-L-valinylamino-4S-hydroxy-1,6-diphenyl-2-azahexane], for which the CC50 in data set [1] turned out to be 18 µM. Moreover, the inhibition at 0.0005 µM on HIV-1 protease (setting [2]) came out at 69%. The molecule also returned an IC50 in the data set on HIV-13B in MT4 cells of 0.23 µM.

For the molecule `CC(C)c1nc(CN(C)C(=O)N[C@H](C(=O)NN(Cc2ccccc2)C[C@H](O)[C@H](Cc2ccccc2)NC(=O)OCc2cncs2)C(C)C)co1` [Example 12, 5S-((5-Thiazolyl)methoxy)Carbonylamino-2-N-((N-methyl-N-((2-isopropyl-4-oxazolyl)methyl)amino)carbonyl)-L-valinylamino-4S-hydroxy-1,6-diphenyl-2-azahexane], in data set [1], the CC50 stood at 53 µM. Moreover, the inhibition at 0.0005 µM on HIV-1 protease (setting [2]) amounted to 78%. This molecule had an IC50 in the data set on HIV-13B in MT4 cells of 0.1 to 0.105 µM.

On to `CC(C)c1nc(COC(=O)N[C@H](C(=O)N[C@@H](Cc2ccccc2)[C@@H](O)CN(Cc2ccc(F)cc2)NC(=O)OC(C)(C)C)C(C)C)co1` [Example 51D], for which the values for the IC50 at HIV-1 protease and with HIV-13B in MT4 cells were 0.0005 µM and 0.209 to 0.274 µM, respectively. For the same molecule, the inhibition at 0.0005 µM on HIV-1 protease (setting [2]) stood at 50%.

As to `CC(C)c1nc(CN(C)C(=O)N[C@H](C(=O)NN(Cc2ccccc2)C[C@H](O)[C@H](Cc2ccccc2)NC(=O)OCc2ccccc2)C(C)C)cs1` [Example 6H, 5S-(Benzyloxycarbonyl)amino-2-N-(((N-methyl-N-((2-isopropyl-4-thiazolyl)methyl)amino)carbonyl)-L-valinyl)amino-4S-hydroxy-1,6-diphenyl-2-azahexane], the inhibition at 0.0005 µM at HIV-1 protease (setting [2]) was determined as 73%.

For `CC(C)c1nc(CN(C)C(=O)N[C@H](C(=O)NN(Cc2cccc(O)c2)C[C@H](O)[C@H](Cc2ccccc2)NC(=O)OCc2cncs2)C(C)C)cs1` [Example 56B, 5S-(((5-Thiazolyl)methoxy)carbonyl)amino-2-N-((((N-methyl-N-2-isopropyl-4-thiazolyl)methyl)amino)carbonyl)-L-valinylamino-4S-hydroxy-1-(3-hydroxyphenyl)-6-phenyl-2-azahexane], the inhibition at 0.0005 µM on HIV-1 protease (setting [2]) was found to be 49%.

Consider `COc1cccc(CN(C[C@H](O)[C@H](Cc2ccccc2)NC(=O)OCc2ccccc2)NC(=O)OC(C)(C)C)c1` [Example 17B], for which the inhibition at 0.012 µM on HIV-1 protease (setting [2]) is 50%. Moreover, the IC50 on HIV-1 protease (read-out: Inhibitor Concentration (at 50 Percent Inhibition), concentration printed with 50 percent inhibition, pH 4.5, 30° C.) turned out to be 0.012 µM.

The molecule `CC(C)(C)OC(=O)NN(Cc1ccc(-c2ccccc2)cc1)C[C@H](O)[C@H](Cc1ccccc1)NC(=O)OCc1ccccc1` [Example 58, 2-(t-Butyloxycarbonyl)amino-5S-(benzyloxycarbonyl)amino-4S-hydroxy-1-(4-biphenyl)-6-phenyl-2-azahexane] returned an IC50 at HIV-1 protease of 0.018 µM. For the same molecule, the inhibition at 0.018 µM on HIV-1 protease (setting [2]) amounted to 50%.

`CC(C)(C)OC(=O)NN(Cc1cccc(O)c1)C[C@H](O)[C@H](Cc1ccccc1)NC(=O)OCc1ccccc1` [Example 55C, 5S-(Benzyloxycarbonyl)amino-2-(t-butyloxycarbonyl)amino-4S-hydroxy-1-(3-hydroxyphenyl)-6-phenyl-2-azahexane] returned an IC50 against HIV-1 protease of 0.0074 µM. In addition, the inhibition at 0.0074 µM on HIV-1 protease (setting [2]) was determined as 50%.

In the case of `CC(C)c1nc(CN(C)C(=O)N[C@H](C(=O)NN(Cc2ccoc2)C[C@H](O)[C@H](Cc2ccccc2)NC(=O)OCc2cncs2)C(C)C)cs1` [Example 48, 5S-(((5-Thiazolyl)methoxy)carbonyl)amino-2-N-(((N-methyl-N-( (2-isopropyl-4-thiazolyl)methyl)amino)carbonyl)-L-valinyl)amino-4S-hydroxy-1-(3-furanyl)-6-phenyl-2-azahexane], the inhibition at 0.0005 µM at HIV-1 protease (setting [2]) came out at 66%. For the same molecule, in the data set on HIV-13B in MT4 cells, the IC50 was 0.088 to 0.114 µM.

Regarding `CC(C)c1nc(CN(C)C(=O)N[C@H](C(=O)NN(Cc2ccc(O)cc2)C[C@H](O)[C@H](Cc2ccccc2)NC(=O)OCc2cncs2)C(C)C)cs1` [Example 54B], at HIV-1 protease (setting [2]), the inhibition at 0.0005 µM is 56%. Also, the IC50 with HIV-13B in MT4 cells was in the range of 0.037 to 0.067 µM.

`CC(C)c1nc(COC(=O)N[C@H](C(=O)NN(Cc2ccoc2)C[C@H](O)[C@H](Cc2ccccc2)NC(=O)OCc2cncs2)C(C)C)co1` [Example 49E, 5S-(((5-Thiazolyl)methoxy)carbonyl)amino-2-((N-2-isopropyl-4-oxazolyl)methoxycarbonyl)amino-4S-hydroxy-1-(3-furanyl)-6-phenyl-2-azahexane]: the inhibition at 0.0005 µM on HIV-1 protease (setting [2]) was determined as 75%. The molecule also had an IC50 in the data set on HIV-13B in MT4 cells of 0.029 to 0.032 µM.

`CC(C)c1nc(COC(=O)N[C@H](C(=O)NN(Cc2ccccc2)C[C@H](O)[C@H](Cc2ccccc2)NC(=O)OCc2cncs2)C(C)C)co1` [Example 50, 5 S-(((5-Thiazolyl)methoxy)carbonyl)amino-2-((N-2-isopropyl-4-oxazolyl)methoxycarbonyl)amino-4S-hydroxy-1,6-diphenyl-2-azahexane]: the inhibition at 0.0005 µM on HIV-1 protease (setting [2]) worked out at 73%. The IC50 in the data set on HIV-13B in MT4 cells was 0.016 to 0.031 µM.

Broadly, the inhibition is how much of the control response was suppressed.

The record behind these values is US5461067A, “Retroviral protease inhibiting compounds” (priority 1994, dated 1995).
